Test results taken from ChEMBL document CHEMBL1201862, “PubChem BioAssay data set” (2004).
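How tested: cells in 96-well plates exposed to compound for 48 hours at five concentrations. GI50 marks 50% less growth.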 The source made the active and inactive calls. Cut-off read from the data, not from the text of the source: active = GI50 up to about 1.1 µM and inactive = higher.

Experiments:
Experiment in all cases: NCI-60 cell line screen, 48 h
A549 = system: A549
KM12 = system: KM12
SK-MEL-28 = system: SK-MEL-28
SNB-19 = system: SNB-19
UACC-257 = system: UACC-257
SK-OV-3 = system: SK-OV-3
RXF 393 = system: RXF 393
M19-MEL = system: M19-MEL
OVCAR-3 = system: OVCAR-3
SF-539 = system: SF-539
OVCAR-5 = system: OVCAR-5
UO-31 = system: UO-31
NCI-H460 = system: NCI-H460
HOP-92 = system: HOP-92
MOLT-4 = system: MOLT-4
OVCAR-8 = system: OVCAR-8
HT-29 = system: HT-29
EKVX = system: EKVX
A498 = system: A498
LOX IMVI = system: LOX IMVI
SF-268 = system: SF-268
HCT-15 = system: HCT-15
HOP-62 = system: HOP-62
Malme-3M = system: Malme-3M
KM-20L2 = system: KM-20L2
CCRF-CEM = system: CCRF-CEM
M14 = system: M14
786-0 = system: 786-0
XF498 = system: XF498
K562 = system: K562
UACC-62 = system: UACC-62
SK-MEL-2 = system: SK-MEL-2
OVCAR-4 = system: OVCAR-4
U-251 = system: U-251
HCT-116 = system: HCT-116
HOP-18 = system: HOP-18
SN12C = system: SN12C
LXFL 529 = system: LXFL 529
DMS-273 = system: DMS-273
COLO 205 = system: COLO 205
SNB-78 = system: SNB-78
SK-MEL-5 = system: SK-MEL-5
SF-295 = system: SF-295
NCI-H226 = system: NCI-H226
IGROV-1 = system: IGROV-1
SNB-75 = system: SNB-75
ACHN = system: ACHN
TK-10 = system: TK-10
RPMI-8226 = system: RPMI-8226
SW-620 = system: SW-620
NCI-H522 = system: NCI-H522
NCI-H23 = system: NCI-H23
CAKI-1 = system: CAKI-1
SR = system: SR
DMS-114 = system: DMS-114
HL-60 = system: HL-60
DLD-1 = system: DLD-1

Measured: GI50

COc1cc2ccc(C(=O)O)cc2cc1OC
inactive: A549 > 100 µM | KM12 > 100 µM | SK-MEL-28 > 100 µM | SNB-19 > 100 µM | UACC-257 > 100 µM | SK-OV-3 > 100 µM | RXF 393 > 100 µM | M19-MEL > 100 µM | OVCAR-3 > 100 µM | SF-539 > 100 µM | OVCAR-5 > 100 µM | UO-31 > 100 µM | NCI-H460 > 100 µM | HOP-92 > 100 µM | MOLT-4 > 100 µM | OVCAR-8 > 100 µM | HT-29 > 100 µM | EKVX > 100 µM | A498 49.7 µM | LOX IMVI > 100 µM | SF-268 > 100 µM | HOP-62 > 100 µM | Malme-3M > 100 µM | KM-20L2 > 100 µM | CCRF-CEM > 100 µM | M14 > 100 µM | 786-0 > 100 µM | XF498 > 100 µM | K562 > 100 µM | UACC-62 > 100 µM | SK-MEL-2 > 100 µM | OVCAR-4 > 100 µM | U-251 > 100 µM | HCT-116 > 100 µM | HOP-18 > 100 µM | SN12C > 100 µM | LXFL 529 > 100 µM | DMS-273 > 100 µM | COLO 205 > 100 µM | SNB-78 > 100 µM | SK-MEL-5 > 100 µM | SF-295 > 100 µM | NCI-H226 > 100 µM | IGROV-1 > 100 µM | SNB-75 37.4 µM | ACHN > 100 µM | TK-10 > 100 µM | RPMI-8226 > 100 µM | SW-620 > 100 µM | NCI-H522 > 100 µM | NCI-H23 > 100 µM
> 100 µM: HCT-15

COCC(C)(C)/N=C/N1Cc2cc3ccccc3nc2C1
> 100 µM: HCT-15
inactive: A549 > 100 µM | CAKI-1 > 100 µM | KM12 > 100 µM | SK-MEL-28 > 100 µM | SNB-19 > 100 µM | UACC-257 > 100 µM | SK-OV-3 > 100 µM | RXF 393 > 100 µM | M19-MEL > 100 µM | OVCAR-3 75.5 µM | SF-539 > 100 µM | UO-31 > 100 µM | NCI-H460 > 100 µM | HOP-92 > 100 µM | MOLT-4 > 100 µM | OVCAR-8 > 100 µM | HT-29 > 100 µM | EKVX > 100 µM | SF-268 > 100 µM | HOP-62 93.8 µM | Malme-3M > 100 µM | KM-20L2 > 100 µM | SR > 100 µM | DMS-114 > 100 µM | CCRF-CEM > 100 µM | M14 > 100 µM | 786-0 > 100 µM | XF498 > 100 µM | K562 > 100 µM | UACC-62 > 100 µM | SK-MEL-2 > 100 µM | HL-60 > 100 µM | OVCAR-4 > 100 µM | DLD-1 > 100 µM | U-251 > 100 µM | HCT-116 > 100 µM | HOP-18 > 100 µM | SN12C > 100 µM | COLO 205 > 100 µM | SK-MEL-5 > 100 µM | SF-295 > 100 µM | NCI-H226 > 100 µM | IGROV-1 > 100 µM | SNB-75 > 100 µM | ACHN > 100 µM | TK-10 > 100 µM | RPMI-8226 > 100 µM | SW-620 > 100 µM | NCI-H522 > 100 µM | NCI-H23 > 100 µM

O=C(O)NC(c1ccccc1)C(NC(=O)c1ccccc1)c1ccccc1 (centres undefined)
> 100 µM: HCT-15
inactive: A549 > 100 µM | CAKI-1 > 100 µM | KM12 > 100 µM | SK-MEL-28 > 100 µM | SNB-19 > 100 µM | UACC-257 > 100 µM | RXF 393 > 100 µM | M19-MEL > 100 µM | OVCAR-3 > 100 µM | SF-539 > 100 µM | OVCAR-5 > 100 µM | NCI-H460 > 100 µM | HOP-92 > 100 µM | OVCAR-8 > 100 µM | HT-29 > 100 µM | EKVX > 100 µM | A498 > 100 µM | LOX IMVI 61.8 µM | SF-268 > 100 µM | HOP-62 > 100 µM | Malme-3M > 100 µM | KM-20L2 > 100 µM | SR > 100 µM | DMS-114 > 100 µM | 786-0 > 100 µM | XF498 > 100 µM | K562 > 100 µM | UACC-62 > 100 µM | SK-MEL-2 > 100 µM | OVCAR-4 > 100 µM | DLD-1 > 100 µM | U-251 > 100 µM | HCT-116 > 100 µM | HOP-18 > 100 µM | SN12C > 100 µM | COLO 205 > 100 µM | SNB-78 > 100 µM | SF-295 > 100 µM | IGROV-1 > 100 µM | SNB-75 > 100 µM | ACHN > 100 µM | TK-10 > 100 µM | RPMI-8226 > 100 µM | SW-620 > 100 µM | NCI-H23 > 100 µM
